# “Also recorded” adds a separate entry of the source.
# How the values were obtained:
# [1] = test system: SVV replication in HeLa cells; assay: SVV replication in Tem 8+ HeLa cells, virus yield by plaque assay; assay type: cell-based
# Description: FIG. 2A. SVV replication in HeLa cells can be enhanced with staurosporine (SSP). FIG. 2B. Inhibition of SVV replication by IFN-α can be reversed with SSP in Per.C6 cells. TEM 8+ HeLa cells or Per.C6 cells were pretreated with 500 units IFN-α before infection with SVV at MOI 1. 300 nM SSP was added at time 0. Virus yields determined by plaque assay 24 h post infection. Results are representative of three independent experiments.
# FIGS. 3A-3B are series of histogram depicting the effect of Trichostatin A on SVV replication. FIG. 3A. SVV replication in HeLa cells can be enhanced with Trichostatin A. FIG. 3B. Inhibition of SVV replication by IFN-α can be reversed with Trichostatin A in Per.C6 cells. TEM 8+ HeLa cells or Per.C6 cells were pretreated with 500 units IFN-α before infection with SVV at MOI 1. 1 μM Trichostatin A was added at time 0. Virus yields determined by plaque assay 24 h post infection. Results are representative of three independent experiments.
# FIGS. 4A-4B are series of histogram depicting the effect of Torin 2 A on SVV replication. FIG. 4A. SVV replication in HeLa cells can be enhanced with Torin 2 A. FIG. 4B. Inhibition of SVV replication by IFN-α can be reversed with Torin 2 in Per.C6 cells. TEM 8+ HeLa cells or Per.C6 cells were pretreated with 500 units IFN-α before infection with SVV at MOI 1. 2 μM Torin 2 was added at time −30 min. Virus yields determined by plaque assay 24 h post infection. Results are representative of three independent experiments.
# Cells and viruses. Cells were maintained in DMEM supplemented with 10% fetal bovine serum (Per.C6) or 10% bovine serum (HeLa), 2 mM L-glutamine (Invitrogen), and 1% penicillin-streptomycin. Viral stocks were produced by growth in Per.C6 cells as previously described (23).
# Cytokines and Inhibitors. IFN-α and Trichostatin A were purchased from Sigma, Inc. (St. Louis, MO). […] All compounds were dissolved in DMSO.
# Virus infections. Infections were performed in 35 mm dishes. Cells were counted at the time of infection and viral stocks were diluted in PBS+0.01% BSA (Sigma, St. Louis, MO) for infections at the appropriate MOI. One hundred microliters of diluted virus were used to infect each plate at 37° C. for 45 min with rocking. Cells were then washed twice with PBS and covered with 1 mL of appropriate media; samples taken at this time are called 0 time point. Mock infected cells were treated with PBS+0.01% BSA instead of virus. Three independent infections were done.
# Plaque assays. […]
# Removal of acetyl moieties from histones is catalyzed by enzymes known as histone deacetylases (HDACs) and leads to […]. […] Sixteen hours after infection virus yields were determined by plaque assay (FIG. 3A). […]
# [2] = test system: SVV replication in Per.C6 cells; assay: SVV replication in Per.C6 cells with or without IFN-α pretreatment, virus yield by plaque assay; assay type: cell-based, human; settings: Per.C6 cells pretreated with 500 units IFN-α
# Description: Per.C6 cells were pretreated with 500 units IFN-α before infection with SVV at MOI=1. Virus yields were determined by plaque assay 24 h post infection.
# Plaque assays. Samples for virus titration were produced by harvesting cells and medium, followed by three cycles of freezing and thawing and then by centrifugation at 5000×g for 5 min. All titrations were done on monolayers of Per.C6 cells in 35 mm plates. Ten-fold serial dilutions of virus were made in PBS+0.1 mg/ml BSA (Sigma) and 0.1 mL of each dilution was added per well. Plates were incubated at 37° C. for 45 min with rocking and overlay was then added. A two-overlay system was used. […] Plaque assays were incubated for 72 hrs at 37° C. Cells were then fixed with 10% TCA (Sigma) and stained with 0.1% crystal violet (Sigma) in 20% ethanol.
molecule,measurement,setting,value
Nc1ccc(-c2ccc3ncc4ccc(=O)n(-c5cccc(C(F)(F)F)c5)c4c3c2)cn1 [Torin 2],enhanced SVV replication by Torin 2 in the presence of IFN-α,"[1]; HeLa cells pretreated with 500 units IFN-α, 2 μM Torin 2 at −30 min, SVV MOI 1, 24 h post infection",not reduced in the presence of IFN-α
same,SVV yields (plaque assay),"[1]; semi-permissive HeLa cells, SVV MOI 1, 2 μM Torin 2 added at time −30 min, 24 h post infection",substantially increased SVV yields
same,SVV replication in the presence of IFN-α,"[2]; 2 μM Torin 2 at −30 min, SVV MOI 1, 24 h post infection",promoted SVV replication
CC(/C=C/C(=O)NO)=C\[C@@H](C)C(=O)c1ccc(N(C)C)cc1 [Trichostatin A],SVV infection of non-permissive HeLa cells (virus yields by plaque assay),"[1]; HeLa cells grown with Trichostatin A for 24 hours before infection, yields sixteen hours after infection (legend: 1 μM at time 0, 24 h)",more efficient
same,effect on inhibition of SVV replication by IFN-α,"[2]; SVV MOI 1, 1 μM Trichostatin A added at time 0, 24 h post infection",reversed the inhibitory effect of IFN-α on SVV replication
CN[C@@H]1C[C@H]2O[C@@](C)([C@@H]1OC)n1c3ccccc3c3c4c(c5c6ccccc6n2c5c31)C(=O)NC4 [staurosporine],production of infectious SVV (virus yields by plaque assay),"[1]; Tem 8+ HeLa cells, SVV MOI 1, 300 nM SSP added at time 0, 24 h post infection",increased production of infectious SVV
IFN-α,production of infectious SVV (virus yields by plaque assay),"[2]; SVV MOI 1, 24 h post infection",significantly reduced production of infectious SVV; also recorded: reduced virus yields

# Source: patent publication US12502414B2, “Second generation Seneca Valley virus oncolytic therapy: compositions and methods thereof” (SENECA THERAPEUTICS, INC., priority 2019, dated 2025)
